This note sets out measurements from patent publication US4948807A, “Phenyl carbamates” (priority 1985, dated 1990).

A short description of one data set: in vivo. The settings on record: for absorption from the gastro-intestinal tract compared with physostigmine: from oral versus s.c. LD50; for protection by atropine against lethality: atropine pretreatment, in words; for LD50 at 3 h / selectivity ratio: mouse, in vivo. How it is done: Mice were given one of at least three different doses of each compound, orally or subcutaneously, a minimum of 10 mice allotted to each dose. The number of animals which died at each dose within 3 hours was determined.
This experiment was repeated after the animals had been pretreated with atropine sulphate, which blocks both peripheral and central muscarinic receptors.
What is important is the safety of the drugs and the presence and severity of side effects that may occur at therapeutic doses. A commonly-used measure of drug safety is the therapeutic index--or LD50 /ED50 [formula]
It is assumed that the therapeutic effect of these anticholinesterase agents results from an elevation of brain cholinergic activity. This in turn, should be related to the degree of inhibition of acetylcholinesterase. For the purpose of the computation of the denominator of the therapeutic ratio, there is used the dose of drug that inhibits the activity of acetylcholinesterase by 50%. […] The numerator is the dose found to kill 50% of the animals within […] of a subcutaneous injection.

The test system of data set [1] is brain acetylcholinesterase. The settings on record: for relative in vivo activity compared to physostigmine versus in vitro data: comparison of Table 1 with Table 2; for Relative potency to physostigmine after oral administration / % cholinesterase inhibition 3 hours after s.c. administration / Relative potency to physostigmine after subcut. (s.c.) administration: mouse brain; for Relative potency to physostigmine after oral administration / Relative potency to physostigmine after subcut. (s.c.) administration: physostigmine = 100. As for the experimental part:
The effect of each compound on brain acetylcholinesterase in vivo was measured, after subcutaneous or oral administration to mice. Animals were sacrificed, at different times ranging from 0.25-8 hours after drug administration. The brain was rapidly removed, and the enzyme acetylcholinesterase extracted and solubilized with 0.1% Triton, and its ability to hydrolyse acetylthiocholine assessed as described above (in vitro experiments), in comparison with the enzyme removed from mice injected with normal saline.

The target in a further data set is T1, acetylcholinesterase (Mus musculus, UniProt P21836).
T1 construct: A solubilized preparation of acetylcholinesterase was prepared from mouse whole brain (minus cerebellum); from tissue; host or cells: mouse whole brain (minus cerebellum), membrane pellet solubilized with 1% Triton
T1 sequence (P21836 32-614): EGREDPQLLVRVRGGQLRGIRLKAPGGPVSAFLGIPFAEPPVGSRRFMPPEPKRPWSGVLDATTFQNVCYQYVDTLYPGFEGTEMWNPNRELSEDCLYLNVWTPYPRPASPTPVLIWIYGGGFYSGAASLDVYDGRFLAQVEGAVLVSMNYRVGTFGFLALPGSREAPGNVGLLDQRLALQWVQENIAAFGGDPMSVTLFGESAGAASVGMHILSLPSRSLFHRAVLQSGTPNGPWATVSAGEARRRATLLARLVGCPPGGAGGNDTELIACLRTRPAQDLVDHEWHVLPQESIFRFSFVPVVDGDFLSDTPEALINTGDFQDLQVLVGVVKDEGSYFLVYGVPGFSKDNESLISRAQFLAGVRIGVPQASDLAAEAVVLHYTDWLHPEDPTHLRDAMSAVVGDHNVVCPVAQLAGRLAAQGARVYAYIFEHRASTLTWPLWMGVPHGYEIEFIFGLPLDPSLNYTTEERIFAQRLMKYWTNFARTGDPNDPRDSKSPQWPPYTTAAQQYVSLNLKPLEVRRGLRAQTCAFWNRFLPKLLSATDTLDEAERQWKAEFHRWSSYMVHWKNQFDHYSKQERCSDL
Nature of the data set: biochemical. It counts as biochemical. As for the experimental part:
A solubilized preparation of acetylcholinesterase was prepared from mouse whole brain (minus cerebellum). The brain was homogenized with (100 mg/ml) phosphate buffer; pH 8.0, centrifuged, the supernatant discarded, and the pellet mixed with a similar volume as above of buffer pH 8.0 plus 1% Triton; mixed, centrifuged and the supernatant which contained most of the solubilized enzyme, was used for the subsequent determinations of anticholinesterase activity.
The activity of the enzyme (rate of hydrolysis of substrate, acetylthiocholine) was measured using at least 4 different concentrations of substrate, and at least 3 different concentrations of each inhibitor. The enzyme was incubated with inhibitor for periods ranging for 2-180 mins. at 37° C., substrate was then added, and its rate of hydrolysis measured by the spectrophotometric method of Ellman et al. (1961).

Data set [2] deals with respiratory depressant effects of morphine. Format: in vivo. The note with it: rabbits, depending on drug and dose. As for the experimental part: Different doses of the carbamate compounds were injected intravenously with morphine in rabbits Respiration rate, arterial blood gas tensions and pH were monitored continuously before and after drug administration for 4-5 hours. In another series of experiments the effect of the anticholinesterase drugs was assessed on the analgesic effect of opiates in rabbits after application of a nociceptive stimulus, i.e. electrical stimulation of the sciatic nerve.

The mark [3] stands for this setting: Degree of protection afforded by pretreatment with atropine, ratio of LD50 after pretreatment with atropine sulphate 5 mg/kg to LD50 of drug alone.
Setting [4] is: Ratio whose head is drawing 10 (Table 3; oral LD50 compared with s.c. LD50), mice, oral versus s.c.
[5] abbreviates: sc, Therapeutic ratio LD50/ED50 s.c., mice, ED50 = dose inhibiting brain acetylcholinesterase by 50%.
Setting [6] is: parenteral administration, in words.
[7] abbreviates: incubation of enzyme with inhibitor, 37° C.

Where two headings read alike, the source gives them in different places.

With `CCN(C)C(=O)Oc1cccc(C(C)N(C)C)c1` (centres unmarked) [RA7, N-ethyl, N-methyl-3[1-(dimethylamino)ethyl]phenyl carbamate], in “in vivo”, the “absorption from the gastro-intestinal tract compared with physostigmine” value (from here on “absorption … compared with physostigmine”) was “more efficiently absorbed from the gastro-intestinal tract than is physostigmine”. Also, the “protection by atropine against lethality” value in the data set “in vivo” (mice) is recorded as “considerably greater protection”. The compound also displayed a median lethal dose (LD50) at 3 h in “in vivo” (sc) of 46 µmol/kg. For the same compound, in data set [1] (mouse, in vivo), the “brain enzyme inhibition after 7 hours” value is recorded as 36%, the “duration of brain acetylcholinesterase inhibition compared with physostigmine or miotine” value was “significantly longer duration” and the “duration of significant brain enzyme inhibition (>30%)” value is given as “more than 3 hours”. Further, on acetylcholinesterase, the “Time of peak activity” value amounted to 90 min.

As to `CCCCNC(=O)Oc1cccc(C(C)N(C)C)c1` (centres unmarked) [RA5, N-butyl-3-[1-(dimethylamino)ethyl]phenyl carbamate], the “protection by atropine against lethality” value in the data set “in vivo” (mice) was “considerably greater protection”. For the same compound, in the data set “in vivo” (setting [3]), the selectivity ratio was determined as 5.8. The selectivity ratio in “in vivo” (setting [4]) stood at 5. In addition, the 50% lethal dose (LD50) at 3 h in the data set “in vivo” (sc) is 19 µmol/kg. The selectivity ratio in “in vivo” (setting [5]) is 7.6. Also, the “duration of significant brain enzyme inhibition (>30%)” value in data set [1] (at ED50 dose) is “more than 3 hours”. In data set [1], the “relative in vivo activity compared to physostigmine versus in vitro data” value (shortened to “relative in vivo activity”) is on record as “relatively more active in vivo compared to physostigmine than one would expect from the in vitro data”, the “% cholinesterase inhibition 3 hours after s.c. administration” value (“% cholinesterase inhibition 3 hours” for short) amounted to 30% and the “Relative potency to physostigmine after subcut. (s.c.) administration” value (from here on “Relative potency … (s.c.) administration”) turned out to be 36. Also, in data set [1] (oral), the “Relative potency to physostigmine after oral administration” value was determined as 29. Also, the “duration of brain acetylcholinesterase inhibition compared with physostigmine or miotine” value in data set [1] (setting [6]) was “significantly longer duration”. Also, the IC50 against acetylcholinesterase was determined as 76 nM. Also, the “Time of peak activity” value on acetylcholinesterase (setting [7]) is 120 min.

Consider `CCCNC(=O)Oc1cccc(C(C)N(C)C)c1` (centres unmarked) [RA15, N-propyl-3[1-(dimethylamino)ethyl]phenyl carbamate], for which the figures for the selectivity ratio in “in vivo” (setting [3]), in “in vivo” (setting [4]) and in the data set “in vivo” (setting [5]) were 4.1, 4.5 and 11.1, respectively. In the data set “in vivo” (sc), this compound yielded a median lethal dose (LD50) at 3 h of 31 µmol/kg. In addition, the “duration of significant antagonism of the respiratory depressant effects of morphine” value in data set [2] fell in the range of 3 to 5 h. In data set [1] (at ED50 dose), the “duration of significant brain enzyme inhibition (>30%)” value is reported as “more than 3 hours”. Also, the “relative in vivo activity” value in data set [1] is “relatively more active in vivo compared to physostigmine than one would expect from the in vitro data”. The “Relative potency to physostigmine after oral administration” value in data set [1] (oral) is recorded as 32. In addition, the “% cholinesterase inhibition 3 hours” value in data set [1] was determined as 37%. Moreover, the “Relative potency … (s.c.) administration” value in data set [1] turned out to be 33. Besides, the “duration of brain acetylcholinesterase inhibition compared with physostigmine or miotine” value in data set [1] (setting [6]) is given as “significantly longer duration”. This compound came in with a half-maximal inhibitory concentration (IC50) at acetylcholinesterase of 110 nM. In addition, the “Time of peak activity” value at acetylcholinesterase (setting [7]) turned out to be 120 min.

As for `CC(C)NC(=O)Oc1cccc(C(C)N(C)C)c1` (centres unmarked) [RA13], in the data set “in vivo”, the “absorption … compared with physostigmine” value is recorded as “more efficiently absorbed from the gastro-intestinal tract than is physostigmine”. In “in vivo” (mice), the “protection by atropine against lethality” value was “considerably greater protection”. Besides, the selectivity ratio in the data set “in vivo” (setting [3]) is 4.5; in “in vivo” (setting [4]), 1.1; in the data set “in vivo” (setting [5]), 1.6. The same compound gave a median lethal dose (LD50) at 3 h in the data set “in vivo” (sc) of 65 µmol/kg. Also, the “Relative potency to physostigmine after oral administration” value in data set [1] (oral) amounted to 5. The “Relative potency … (s.c.) administration” value in data set [1] is recorded as 2. At acetylcholinesterase, this compound yielded an IC50 of 12000 nM. The “Time of peak activity” value on acetylcholinesterase (setting [7]) amounted to 120 min.

Consider `CCN(CC)C(=O)Oc1cccc(C(C)N(C)C)c1` (centres unmarked) [RA8, N,N-diethyl-3-[1-(dimethylamino)ethyl]phenyl carbamate], for which, in the data set “in vivo” (sc), the 50% lethal dose (LD50) at 3 h was more than 568 µmol/kg. Moreover, the selectivity ratio in “in vivo” (setting [5]) is more than 10. Further, in data set [1] (at ED50 dose), the “duration of significant brain enzyme inhibition (>30%)” value is recorded as “more than 3 hours”. Also, in data set [1], the “relative in vivo activity” value is “relatively more active in vivo compared to physostigmine than one would expect from the in vitro data”, the “% cholinesterase inhibition 3 hours” value was 32% and the “Relative potency … (s.c.) administration” value was found to be 2. For the same compound, the “Relative potency to physostigmine after oral administration” value in data set [1] (oral) was 5. Also, the “ED50 after oral administration compared with S.C. injection” value in data set [1] (oral versus s.c.) is on record as “the same as that after S.C. injection”. The “duration of brain acetylcholinesterase inhibition compared with physostigmine or miotine” value in data set [1] (setting [6]) is “significantly longer duration”. The same compound registered a concentration for half-maximal inhibition (IC50) on acetylcholinesterase of 35000 nM. In addition, the “Time of peak activity” value at acetylcholinesterase (setting [7]) was found to be 30 min.

Compound `CC(c1cccc(OC(=O)N2CCOCC2)c1)N(C)C` (centres unmarked) [RA11] had an IC50 on acetylcholinesterase of more than 20000 nM. Also, the “Time of peak activity” value on acetylcholinesterase (setting [7]) amounted to 30 min.

On to `CC(c1cccc(OC(=O)NC2CCCCC2)c1)N(C)C` (centres unmarked) [RA12], for which the selectivity ratio came out at 3.8 in “in vivo” (setting [3]), 3.6 in the data set “in vivo” (setting [4]) and 5.8 in the data set “in vivo” (setting [5]). Besides, the median lethal dose (LD50) at 3 h in the data set “in vivo” (sc) is 42 µmol/kg. In addition, in data set [1] (at ED50 dose), the “duration of significant brain enzyme inhibition (>30%)” value is “more than 3 hours”. Besides, the “Relative potency to physostigmine after oral administration” value in data set [1] (oral) turned out to be 17. Moreover, the “% cholinesterase inhibition 3 hours” value in data set [1] came to 37%. In addition, the “Relative potency … (s.c.) administration” value in data set [1] was 13. For the same compound, it took 93 nM to reach half-maximal inhibition on acetylcholinesterase (IC50). Besides, the “Time of peak activity” value at acetylcholinesterase (setting [7]) was found to be 120 min.

For `CCCN(C)C(=O)Oc1cccc(C(C)N(C)C)c1` (centres unmarked) [RA4, N-methyl, N-propyl-3[1-(dimethylamino)ethyl]phenyl carbamate], in the data set “in vivo”, the “absorption … compared with physostigmine” value was “more efficiently absorbed from the gastro-intestinal tract than is physostigmine”. Moreover, the “protection by atropine against lethality” value in the data set “in vivo” (mice) is recorded as “considerably greater protection”. The selectivity ratio in the data set “in vivo” (setting [3]) was determined as 4.9; in the data set “in vivo” (setting [4]) it was 1.7; in the data set “in vivo” (setting [5]) it was 10. Further, the 50% lethal dose (LD50) at 3 h in the data set “in vivo” (sc) stood at 72 µmol/kg. For the same compound, in data set [1] (at ED50 dose), the “duration of significant brain enzyme inhibition (>30%)” value is on record as “more than 3 hours”. For the same compound, in data set [1] (oral), the “Relative potency to physostigmine after oral administration” value is on record as 29. Also, the “% cholinesterase inhibition 3 hours” value in data set [1] is 25%. Besides, the “Relative potency … (s.c.) administration” value in data set [1] was determined as 13. In data set [1] (oral, in words), the “bioavailability after oral administration compared with physostigmine” value was “better bioavailability after oral administration than physostigmine”. For the same compound, the “duration of brain acetylcholinesterase inhibition compared with physostigmine or miotine” value in data set [1] (setting [6]) is “significantly longer duration”. This compound also returned an IC50 at acetylcholinesterase of 1700 nM. In addition, the “Time of peak activity” value at acetylcholinesterase (setting [7]) came out at 60 min.
